Results reported in patent US20250074888A1, “PYRIDAZINE DERIVATIVES AS MODULATORS OF NLRP3 INFLAMMASOME AND RELATED METHODS” (Neumora Therapeutics, Inc., priority 2021, published 2025).

Key:
IL-6 = IL-6 release from LPS-primed, nigericin-treated THP1 macrophages, Hu IL-6 AlphaLISA; type: cell-based; conditions: Homo sapiens, THP-1; PMA-differentiated THP1, LPS 20 ng/ml 3 hrs, compound 1 hr, Nigericin 6.7 uM 3 hrs, supernatant
NLRP3 inflammasome = NLRP3 inflammasome (Homo sapiens, UniProt Q96P20); assay: NLRP3 inflammasome activation in THP1 macrophages (LPS priming, nigericin), IL-1β AlphaLISA; type: cell-based; conditions: PMA-differentiated THP1, LPS 20 ng/ml 3 hrs, compound 1 hr, Nigericin 6.7 uM 3 hrs, supernatant
Chain of NLRP3 inflammasome (Q96P20 whole entry): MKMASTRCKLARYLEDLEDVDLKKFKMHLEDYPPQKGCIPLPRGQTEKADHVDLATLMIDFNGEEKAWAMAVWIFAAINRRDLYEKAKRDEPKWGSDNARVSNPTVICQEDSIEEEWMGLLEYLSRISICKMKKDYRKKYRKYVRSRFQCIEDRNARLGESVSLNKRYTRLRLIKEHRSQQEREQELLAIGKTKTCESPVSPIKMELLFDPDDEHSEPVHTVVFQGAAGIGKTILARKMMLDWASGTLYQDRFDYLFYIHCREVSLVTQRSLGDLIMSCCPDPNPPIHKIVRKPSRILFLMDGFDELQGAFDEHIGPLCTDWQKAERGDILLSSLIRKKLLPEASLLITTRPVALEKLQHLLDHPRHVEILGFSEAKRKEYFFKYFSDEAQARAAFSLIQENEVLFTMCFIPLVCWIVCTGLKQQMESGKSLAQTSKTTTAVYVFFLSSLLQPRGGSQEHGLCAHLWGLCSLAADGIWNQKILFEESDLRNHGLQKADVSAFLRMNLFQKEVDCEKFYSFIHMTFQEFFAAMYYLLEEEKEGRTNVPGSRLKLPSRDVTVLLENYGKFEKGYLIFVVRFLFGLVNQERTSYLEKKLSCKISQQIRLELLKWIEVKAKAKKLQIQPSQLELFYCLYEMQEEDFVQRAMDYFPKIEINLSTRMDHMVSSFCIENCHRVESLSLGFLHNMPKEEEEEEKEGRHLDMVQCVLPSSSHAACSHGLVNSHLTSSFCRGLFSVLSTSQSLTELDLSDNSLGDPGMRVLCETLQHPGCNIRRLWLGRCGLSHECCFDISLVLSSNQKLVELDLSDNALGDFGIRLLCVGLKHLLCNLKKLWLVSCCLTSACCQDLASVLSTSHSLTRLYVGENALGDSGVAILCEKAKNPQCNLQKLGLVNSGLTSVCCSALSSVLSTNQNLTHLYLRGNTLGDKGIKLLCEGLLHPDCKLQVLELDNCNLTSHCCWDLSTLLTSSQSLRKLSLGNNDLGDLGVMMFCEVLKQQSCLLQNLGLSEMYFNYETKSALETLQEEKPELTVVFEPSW

Compound | IC50 (IL-6) | IC50 (NLRP3 inflammasome)
Cc1cc(-c2cccc(F)c2)nnc1N[C@@H]1CCCN(C)C1 [compound 56] | > 10000 nM | > 1000 nM
CN1CCC[C@@H](Nc2cc(C(F)(F)F)c(-c3ccc(C(F)(F)F)cc3)nn2)C1 [compound 61] | > 10000 nM | 10 to 50 nM
Cc1cc(N[C@@H]2CCCN(C)C2)nnc1-c1ccc(C(F)(F)F)c(C#N)c1 [compound 63] | > 10000 nM | 100 to 500 nM
Cc1cc(N[C@@H]2CCCN(CCF)C2)nnc1-c1ccc(F)cc1 [compound 65] | > 10000 nM | 500 to 1000 nM
Cc1cc(N[C@@H]2CCCN(CC3CC3)C2)nnc1-c1ccc(C(F)(F)F)cc1 [compound 66] | > 10000 nM | ≤ 10 nM
CN1CCC[C@@H](Nc2ccc(-c3ccc(C(F)(F)F)cc3)nn2)C1 [compound 67] | > 10000 nM | 100 to 500 nM
Cc1cc(N[C@@H]2CCCN(C3CC3)C2)nnc1-c1ccc(C(F)(F)F)cc1 [compound 68] | > 10000 nM | ≤ 10 nM
Cc1cc(N[C@H]2CN(C)CC(F)(F)C2)nnc1-c1ccc(C(F)(F)F)cc1 [compound 69] | > 10000 nM | 50 to 100 nM
Cc1cc(N[C@@H]2CCCN(CC3CC3)C2)nnc1-c1ccc(F)cc1 [compound 70] | > 10000 nM | ≤ 10 nM
Cc1cc(-c2ccc(N[C@@H]3CCCN(C)C3)nn2)c(C)cc1F [compound 71] | > 10000 nM | 10 to 50 nM
Cc1cc(N[C@H]2CN(C)CC[C@H]2F)nnc1-c1ccc(C(F)(F)F)cc1 [compound 74, N-((3S,4R)-4-fluoro-1-methylpiperidin-3-yl)-5-methyl-6-(4-(trifluoromethyl)-phenyl)pyridazin-3-amine] | > 10000 nM | > 1000 nM
Cc1cc(N[C@@H]2CCCN(C)C2)nnc1-c1ccc(O)c(C)c1C(F)(F)F [compound 76] | 5000 to 10000 nM | > 1000 nM
Cc1cc(-c2cccc(Cl)c2)nnc1N[C@@H]1CCCN(C)C1 [compound 77] | 5000 to 10000 nM | > 1000 nM
CCc1cccc(-c2cc(C)c(N[C@@H]3CCCN(C)C3)nn2)c1 [compound 78] | > 10000 nM | > 1000 nM
CN1CCC[C@@H](Nc2ccc(-c3ccccc3)nn2)C1 [compound 84] | > 10000 nM | > 1000 nM
Cc1ccccc1-c1nnc(N[C@@H]2CCCN(C)C2)cc1C [compound 87] | > 10000 nM | > 1000 nM
Cc1cc(-c2ccc(C(F)(F)F)cc2)nnc1N[C@H]1CN(C)CC[C@H]1F [compound 88] | > 10000 nM | > 1000 nM
Cc1cc(N[C@@H]2CCCN(C)C2)nnc1-c1ccccc1C#N [compound 89] | > 10000 nM | > 1000 nM
Cc1ccc(-c2cc(C(F)(F)F)c(N[C@@H]3CCCN(C)C3)nn2)cc1 [compound 91] | > 10000 nM | > 1000 nM
Cc1cccc(-c2cc(C)c(N[C@@H]3CCCN(C)C3)nn2)c1 [compound 92] | > 10000 nM | > 1000 nM

Compound | IC50 (IL-6) | IC50 (NLRP3 inflammasome)
Cc1cc(N[C@@H]2CCCN(C)C2)nnc1-c1ccc(C2CC2)cc1 [compound 93] | > 10000 nM | 10 to 50 nM
Cc1cc(N[C@@H]2CCCN(C)C2)nnc1-c1ccc(F)cc1C#N [compound 96] | > 10000 nM | > 1000 nM
Cc1cc(-c2ccc(F)cc2C#N)nnc1N[C@@H]1CCCN(C)C1 [compound 97] | > 10000 nM | > 1000 nM
Cc1cc(-c2nnc(N[C@@H]3CCCN(C)C3)cc2C)ccc1C(F)(F)F [compound 99] | > 10000 nM | 500 to 1000 nM
Cc1cc(-c2cc(C)c(N[C@@H]3CCCN(C)C3)nn2)ccc1C(F)(F)F [compound 100] | > 10000 nM | > 1000 nM
COc1cc(N[C@@H]2CCCN(C)C2)nnc1-c1ccc(C(F)(F)F)cc1 [compound 101] | > 10000 nM | > 1000 nM
COc1cc(-c2ccc(C(F)(F)F)cc2)nnc1N[C@@H]1CCCN(C)C1 [compound 102] | > 10000 nM | > 1000 nM
Cc1cc(N[C@@H]2CCCN(C)C2)nnc1-c1ccc(O)cc1 [compound 104] | > 10000 nM | > 1000 nM
Cc1cc(-c2ccc(C(F)(F)F)c(Cl)c2)nnc1N[C@@H]1CCCN(C)C1 [compound 105] | > 10000 nM | > 1000 nM
Cc1cc(-c2ccc(N[C@@H]3CCCN(C)C3)nn2)cc(C)c1F [compound 106] | > 10000 nM | > 1000 nM
Cc1cc(-c2cc(C)c(F)c(C)c2)nnc1N[C@@H]1CCCN(C)C1 [compound 107] | > 10000 nM | > 1000 nM
CN1CCC[C@@H](Nc2nnc(-c3ccc(C(F)(F)F)cc3)cc2C(F)(F)F)C1 [compound 111] | > 10000 nM | > 1000 nM
Cc1cc(-c2cc(C)c(N[C@@H]3CCCN(C)C3)nn2)ccc1F [compound 112] | > 10000 nM | > 1000 nM
Cc1cc(N[C@@H]2CCCN(CC(F)(F)F)C2)nnc1-c1ccc(C(F)(F)F)cc1 [compound 114] | > 10000 nM | > 1000 nM
Cc1cc(N[C@@H]2CCCN(CC(F)(F)F)C2)nnc1-c1ccc(F)cc1 [compound 115] | 5000 to 10000 nM | > 1000 nM
Cc1cc(N[C@@H]2CCCN(CC(F)F)C2)nnc1-c1ccc(F)cc1 [compound 116] | > 10000 nM | > 1000 nM
Cc1cc(-c2ccc(F)c(F)c2)nnc1N[C@@H]1CCCN(C)C1 [compound 117] | > 10000 nM | > 1000 nM
Cc1cc(Cl)ccc1-c1nnc(N[C@@H]2CCCN(C)C2)cc1C [compound 123] | > 10000 nM | ≤ 10 nM
Cc1cc(Cl)ccc1-c1ccc(N[C@@H]2CCCN(C)C2)nn1 [compound 125] | > 10000 nM | 50 to 100 nM
CN1CCC[C@@H](Nc2ccc(-c3ccc(F)cc3)nn2)C1 [compound 126] | > 10000 nM | > 1000 nM

More lines, now with the values ahead:

IC50 (IL-6) | IC50 (NLRP3 inflammasome) | Compound
> 10000 nM | > 1000 nM | COc1ccc(-c2cc(C)c(N[C@@H]3CCCN(C)C3)nn2)cc1 [compound 58]
> 10000 nM | 50 to 100 nM | CN1CCC[C@@H](Nc2cc(C#N)c(-c3ccc(C(F)(F)F)cc3)nn2)C1 [compound 59]
5000 to 10000 nM | 100 to 500 nM | Cc1cc(N[C@@H]2CCCN(CC(F)F)C2)nnc1-c1ccc(C(F)(F)F)cc1 [compound 60]
> 10000 nM | 10 to 50 nM | Cc1cc(-c2nnc(N[C@@H]3CCCN(C)C3)cc2C)ccc1F [compound 62]
> 10000 nM | 100 to 500 nM | Cc1cc(N[C@@H]2CCCN(C)C2)nnc1-c1ccc(F)c(F)c1 [compound 64]
> 10000 nM | 100 to 500 nM | Cc1cc(-c2ccc(C(F)(F)F)cc2C#N)nnc1N[C@@H]1CCCN(C)C1 [compound 72]
> 10000 nM | 100 to 500 nM | Cc1cc(-c2ccc(F)c(Cl)c2)nnc1N[C@@H]1CCCN(C)C1 [compound 73]
5000 to 10000 nM | > 1000 nM | COc1cc(C(F)(F)F)cc(C)c1-c1ccc(N[C@@H]2CCCN(C)C2)nn1 [compound 75]
> 10000 nM | > 1000 nM | Cc1cc(-c2cccc(C(C)C)c2)nnc1N[C@@H]1CCCN(C)C1 [compound 79]
> 10000 nM | > 1000 nM | Cc1cc(-c2ccc(C#N)cc2)nnc1N[C@@H]1CCCN(C)C1 [compound 80]
> 10000 nM | > 1000 nM | Cc1cc(-c2ccc(OC(F)(F)F)cc2)nnc1N[C@@H]1CCCN(C)C1 [compound 81]
> 10000 nM | > 1000 nM | Cc1ccc(-c2cc(C)c(N[C@@H]3CCCN(C)C3)nn2)cc1 [compound 82]
> 10000 nM | > 1000 nM | Cc1ccccc1-c1ccc(N[C@@H]2CCCN(C)C2)nn1 [compound 85]
> 10000 nM | > 1000 nM | Cc1cc(-c2ccccc2C#N)nnc1N[C@@H]1CCCN(C)C1 [compound 90]
> 10000 nM | > 1000 nM | Cc1cc(-c2ccc(C3CC3)cc2)nnc1N[C@@H]1CCCN(C)C1 [compound 94]
5000 to 10000 nM | > 1000 nM | Cc1cc(-c2ccc(C3CCC3)cc2)nnc1N[C@@H]1CCCN(C)C1 [compound 95]

IC50 (IL-6) | IC50 (NLRP3 inflammasome) | Compound
> 10000 nM | > 1000 nM | Cc1cc(-c2ccc(F)cc2F)nnc1N[C@@H]1CCCN(C)C1 [compound 98]
> 10000 nM | > 1000 nM | CN1CCC[C@@H](Nc2nnc(-c3ccc(C(F)(F)F)cc3)cc2C#N)C1 [compound 103]
> 10000 nM | > 1000 nM | Cc1cc(N[C@@H]2CCCN(C)C2)nnc1-c1ccc(F)c(C#N)c1 [compound 108]
> 10000 nM | > 1000 nM | Cc1cc(-c2ccc(F)c(C#N)c2)nnc1N[C@@H]1CCCN(C)C1 [compound 109]
5000 to 10000 nM | > 1000 nM | Cc1cc(F)cc(C)c1-c1ccc(N[C@@H]2CCCN(C)C2)nn1 [compound 110]
> 10000 nM | > 1000 nM | Cc1cc(-c2ccc(C(F)(F)F)c(C#N)c2)nnc1N[C@@H]1CCCN(C)C1 [compound 113]
> 10000 nM | > 1000 nM | Cc1cc(N[C@H]2CCCN(C)C2)nnc1-c1ccc(C(F)(F)F)cc1 [compound 118]
> 10000 nM | > 1000 nM | Cc1cc(N[C@H]2CN(C)CC(F)(F)C2)nnc1-c1ccc(F)cc1 [compound 119]
> 10000 nM | 50 to 100 nM | Cc1cc(N[C@@H]2CCCN(C3CC3)C2)nnc1-c1ccc(F)cc1 [compound 120]
> 10000 nM | 100 to 500 nM | Cc1cc(N[C@H]2CN(C)CC[C@H]2F)nnc1-c1ccc(F)cc1 [compound 121]
> 10000 nM | 10 to 50 nM | CCN1CCC[C@@H](Nc2cc(C)c(-c3ccc(F)cc3)nn2)C1 [compound 122]
5000 to 10000 nM | 10 to 50 nM | Cc1cc(Cl)ccc1-c1cc(C)c(N[C@@H]2CCCN(C)C2)nn1 [compound 124]
> 10000 nM | ≤ 10 nM | Cc1cc(N[C@@H]2CCCN(C)C2)nnc1-c1ccc(Cl)cc1 [compound 127]
> 10000 nM | 100 to 500 nM | Cc1cc(-c2ccc(Cl)cc2)nnc1N[C@@H]1CCCN(C)C1 [compound 128]
> 10000 nM | 50 to 100 nM | CN1CCC[C@@H](Nc2ccc(-c3ccc(Cl)cc3)nn2)C1 [compound 129]
